Reference: article PMC10460844, “Real‐Time Monitoring of Multitarget Antimicrobial Mechanisms of Peptoids Using Label‐Free Imaging with Optical Diffraction Tomography” (Advanced Science, 2023)
≈ marks a conversion by molar mass, not a printed value. Counter-ions that a name gives are not always drawn. Like-named read-outs stand apart in the source and are kept apart here. Square brackets hold non-standard residues; d marks the D form. Peptide text beside a SMILES is read from it. Gly(N(CH2)2(3-indolyl)) = O=C(O)CNCCc1c[nH]c2ccccc12; Nspe = C[C@H](NCC(=O)O)c1ccccc1; Nlys = NCCCCNCC(=O)O

Legend:
[1] = tested on: E. coli ATCC 25922; format: cell-based, Escherichia coli
Method: (§1) The antibacterial activity of the peptoids was evaluated against gram‐positive (Staphylococcus aureus, ATCC 25 923) and gram‐negative (Escherichia coli, ATCC 25 922) bacteria. […] The MIC of each peptoid was determined using a broth dilution assay. For each assay, the primary culture of either S. aureus or E. coli was grown overnight in cation‐adjusted Mueller Hinton broth 2 (MHB2) media at 37 °C with shaking. A secondary culture was prepared the next day, grown for 3–4 h, and then diluted in MHB2 media with a final concentration of 0.001% acetic acid and 0.02% bovine serum albumin to obtain a calculated optical density (OD) of 0.001. This corresponded to ≈2–5 × 10^5 colony‐forming units (CFU mL^−1) of bacteria. Using 96‐well polypropylene plates (Eppendorf, Hamburg, Germany), 100 µL of 2–5 × 10^5 CFU mL^−1 bacteria were added in triplicate for each peptoid. Each peptoid was assayed at six different concentrations in two‐fold serial dilutions. The maximum peptoid concentration was 25 µM. […] The MIC value determination was performed in triplicate. The MIC was defined as the lowest peptoid concentration that prevented turbidity during visual inspection.

[2] = tested on: S. aureus ATCC 25923; format: cell-based, Staphylococcus aureus
Method: as §1

[3] = tested on: rat erythrocytes; test: Hemolysis assay; format: cell-based
Method in brief: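 Washed Sprague-Dawley rat erythrocytes (10% suspension in PBS pH 7.4) mixed with peptoids (0–100 µM), 60 min at 37 °C; supernatant A540 expressed as % of 1% Triton X-100 lysis. HC10/HC50 are concentrations giving 10%/50% hemolysis; Hmax is hemolysis at 100 µM.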

[4] = Analytical reversed-phase HPLC elution (hydrophobicity); format: physicochemical; conditions: analytical RP-HPLC, 1 mL/min, UV 220 nm; for HPLC elution: Table S1, SunFire C18, water/ACN + 0.1% TFA, 5 to 100% B linear over 30 min, approximate comparison of hydrophobicity
Method in brief: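 Analytical reversed-phase HPLC on a C18 column (4.6 × 250 mm, 5 μm) at 1 mL/min, water/acetonitrile each with 0.1% TFA. Held at 5% B for 2 min, then linear to 100% B over 30 min and held 5 min, with UV detection at 220 nm; retention time (tR) serves as hydrophobicity measure.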

[5] = Table S2, broth dilution, MHB2, 37 °C 24 h, max 25 µM, mean of triplicate

Row | Structure (SMILES) | HPLC elution [4] | MIC E. coli ATCC25922 [1, 5] | MIC S. aureus ATCC25923 [2, 5] | HPLC elution (%ACN) ([4]; Table 1, SunFire C18 […] 250 mm, water/ACN + 0.1% TFA, 5% B 2 min then linear to 100% B over 30 min, used as measure of hydrophobicity) | MIC E. coli ATCC25922 ([1]; ATCC 25922) | MIC S. aureus ATCC25923 ([2]; ATCC 25923) | Hmax (100 µM) [3] | HC10 ([3]; red cells of rat) | HC50 ([3]; red cells of rat) | HC10 ([3]; pH 7.4) | HC50 ([3]; pH 7.4) | H max (100 µM) [3]
1 | C[C@@H](c1ccccc1)N(CC(N)=O)C(=O)CN(C(=O)CN(CCCCN)C(=O)CN(C(=O)CN(CCc1c[nH]c2ccccc12)C(=O)CN(CCCCN)C(=O)CN(CCc1c[nH]c2ccccc12)C(=O)CN(C(=O)CN(CCCCN)C(=O)CN(C(=O)CN(C(=O)CNCCCCN)[C@@H](C)c1ccccc1)[C@@H](C)c1ccccc1)[C@@H](C)c1ccccc1)[C@@H](C)c1ccccc1)[C@@H](C)c1ccccc1 [15-HCl] | – | – | – | – | 6.3 µM | 3.1 µM | 33.4±9.7% | 50.4 µM | > 100 µM | – | – | –
2 | C[C@@H](c1ccccc1)N(CC(=O)N(CCCCN)CC(=O)N(CCc1c[nH]c2ccccc12)CC(=O)N(CCc1c[nH]c2ccccc12)CC(N)=O)C(=O)CN(CCCCN)C(=O)CN(CCCCN)C(=O)CN(C(=O)CN(C(=O)CN(CCCCN)C(=O)CN(C(=O)CN(C(=O)CNCCCCN)[C@@H](C)c1ccccc1)[C@@H](C)c1ccccc1)[C@@H](C)c1ccccc1)[C@@H](C)c1ccccc1 [29-HCl] (H-[Nlys][Nspe][Nspe][Nlys][Nspe][Nspe][Nlys][Nlys][Nspe][Nlys][Gly(N(CH2)2(3-indolyl))][Gly(N(CH2)2(3-indolyl))]-NH2) | – | – | – | – | 12.5 µM | 12.5 µM | 4.3±0.3% | > 100 µM | > 100 µM | – | – | –
3 | C[C@@H](c1ccccc1)N(CC(=O)N(CCCCN)CC(=O)N(CC(=O)N(CC(=O)N(CCCCN)CC(=O)N(CC(=O)N(CC(=O)N(CCCCN)CC(N)=O)[C@@H](C)c1ccccc1)[C@@H](C)c1ccccc1)[C@@H](C)c1ccccc1)[C@@H](C)c1ccccc1)C(=O)CN(C(=O)CN(CCCCN)C(=O)CN(CCc1c[nH]c2ccccc12)C(=O)CNCCc1c[nH]c2ccccc12)[C@@H](C)c1ccccc1 [37-HCl] (H-[Gly(N(CH2)2(3-indolyl))][Gly(N(CH2)2(3-indolyl))][Nlys][Nspe][Nspe][Nlys][Nspe][Nspe][Nlys][Nspe][Nspe][Nlys]-NH2) | – | – | – | – | 6.3 µM | 3.1 µM | 86.6±5.7% | 14.4 µM | 56.5 µM | – | – | –
4 | C[C@@H](c1ccccc1)N(CC(=O)N(CCCCN)CC(=O)N(CC(=O)N(CC(=O)N(CCCCN)CC(=O)N(CC(=O)N(CC(=O)N(CCCCN)CC(N)=O)[C@@H](C)c1ccccc1)[C@@H](C)c1ccccc1)[C@@H](C)c1ccccc1)[C@@H](C)c1ccccc1)C(=O)CN(C(=O)CN(CCCCN)C(=O)CN(CCc1c[nH]c2ccccc12)C(=O)CNCCc1c[nH]c2ccccc12)[C@@H](C)c1ccccc1 [37-AcOH] (H-[Gly(N(CH2)2(3-indolyl))][Gly(N(CH2)2(3-indolyl))][Nlys][Nspe][Nspe][Nlys][Nspe][Nspe][Nlys][Nspe][Nspe][Nlys]-NH2) | – | – | – | – | 6.3 µM (≈ 12 µg/mL) | 1.6 µM (≈ 3.04 µg/mL) | 98.9±8.0% | 12.5 µM | 26.0 µM | – | – | –
5 | C[C@@H](c1ccccc1)N(CC(N)=O)C(=O)CN(CCCCN)C(=O)CN(CCCCN)C(=O)CN(C(=O)CN(C(=O)CN(CCCCN)C(=O)CN(C(=O)CN(C(=O)CN(CCCCN)C(=O)CN(CCc1c[nH]c2ccccc12)C(=O)CN(CCc1c[nH]c2ccccc12)C(=O)CNCCCCN)[C@@H](C)c1ccccc1)[C@@H](C)c1ccccc1)[C@@H](C)c1ccccc1)[C@@H](C)c1ccccc1 [32-HCl] | – | – | – | – | 6.3 µM | 6.3 µM | 8.7±0.6% | > 100 µM | > 100 µM | – | – | –
6 | C[C@@H](c1ccccc1)N(CC(N)=O)C(=O)CN(C(=O)CN(CCCCN)C(=O)CN(C(=O)CN(C(=O)CN(CCCCN)C(=O)CN(C(=O)CN(C(=O)CN(CCCCN)C(=O)CN(CCc1c[nH]c2ccccc12)C(=O)CN(C(=O)CNCCCCN)[C@@H](C)c1ccccc1)[C@@H](C)c1ccccc1)[C@@H](C)c1ccccc1)[C@@H](C)c1ccccc1)[C@@H](C)c1ccccc1)[C@@H](C)c1ccccc1 [10-HCl] | – | – | – | – | 6.3 µM | 3.1 µM | 81.5±7.4% | 15.3 µM | 37.8 µM | – | – | –
7 | C[C@@H](c1ccccc1)N(CC(=O)N(CCCCN)CC(=O)N(CC(=O)N(CC(=O)N(CCCCN)CC(=O)N(CC(=O)N(CC(=O)N(CCCCN)CC(=O)N(CCc1c[nH]c2ccccc12)CC(=O)N(CCc1c[nH]c2ccccc12)CC(N)=O)[C@@H](C)c1ccccc1)[C@@H](C)c1ccccc1)[C@@H](C)c1ccccc1)[C@@H](C)c1ccccc1)C(=O)CN(C(=O)CNCCCCN)[C@@H](C)c1ccccc1 [11-HCl] (H-[Nlys][Nspe][Nspe][Nlys][Nspe][Nspe][Nlys][Nspe][Nspe][Nlys][Gly(N(CH2)2(3-indolyl))][Gly(N(CH2)2(3-indolyl))]-NH2) | – | – | – | – | 3.1 µM | 3.1 µM | 113.9±1.7% | 10.1 µM | 21.5 µM | – | – | –
8 | C[C@@H](c1ccccc1)N(CC(N)=O)C(=O)CN(C(=O)CN(CCCCN)C(=O)CN(C(=O)CN(C(=O)CN(CCCCN)C(=O)CN(C(=O)CN(C(=O)CN(CCCCN)C(=O)CN(CCc1c[nH]c2ccccc12)C(=O)CN(CCc1c[nH]c2ccccc12)C(=O)CNCCCCN)[C@@H](C)c1ccccc1)[C@@H](C)c1ccccc1)[C@@H](C)c1ccccc1)[C@@H](C)c1ccccc1)[C@@H](C)c1ccccc1 [14-HCl] | – | – | – | – | 3.1 µM | 3.1 µM | 75.3±5.0% | 19.2 µM | 68.2 µM | – | – | –
9 | C[C@@H](c1ccccc1)N(CC(N)=O)C(=O)CN(C(=O)CN(CCCCN)C(=O)CN(C(=O)CN(C(=O)CN(CCCCN)C(=O)CN(C(=O)CN(C(=O)CN(CCCCN)C(=O)CN(CCc1c[nH]c2ccccc12)C(=O)CN(CCc1c[nH]c2ccccc12)C(=O)CNCCCCN)[C@@H](C)c1ccccc1)[C@@H](C)c1ccccc1)[C@@H](C)c1ccccc1)[C@@H](C)c1ccccc1)[C@@H](C)c1ccccc1 [14-AcOH] | – | – | – | – | 3.1 µM (≈ 5.88 µg/mL) | 1.6 µM (≈ 3.04 µg/mL) | 100.7±17.2% | 14.9 µM | 51.8 µM | – | – | –
10 | C[C@@H](c1ccccc1)N(CC(N)=O)C(=O)CN(C(=O)CN(CCCCN)C(=O)CN(C(=O)CN(CCc1c[nH]c2ccccc12)C(=O)CN(CCCCN)C(=O)CN(CCc1c[nH]c2ccccc12)C(=O)CN(C(=O)CN(CCCCN)C(=O)CN(C(=O)CN(C(=O)CNCCCCN)[C@@H](C)c1ccccc1)[C@@H](C)c1ccccc1)[C@@H](C)c1ccccc1)[C@@H](C)c1ccccc1)[C@@H](C)c1ccccc1 [15-AcOH] | – | – | – | – | 6.3 µM (≈ 12 µg/mL) | 3.1 µM (≈ 5.88 µg/mL) | 34.1±1.1% | 39.2 µM | > 100 µM | – | – | –

Now from value to compound, other results behind:

Row | HPLC elution [4] | MIC E. coli ATCC25922 [1, 5] | MIC S. aureus ATCC25923 [2, 5] | HPLC elution (%ACN) ([4]; Table 1, SunFire C18 […] 250 mm, water/ACN + 0.1% TFA, 5% B 2 min then linear to 100% B over 30 min, used as measure of hydrophobicity) | Structure (SMILES) | MIC E. coli ATCC25922 ([1]; ATCC 25922) | MIC S. aureus ATCC25923 ([2]; ATCC 25923) | Hmax (100 µM) [3] | HC10 ([3]; red cells of rat) | HC50 ([3]; red cells of rat) | HC10 ([3]; pH 7.4) | HC50 ([3]; pH 7.4) | H max (100 µM) [3]
11 | 53.7 % MeCN | – | – | – | C[C@@H](c1ccccc1)N(CC(N)=O)C(=O)CN(C(=O)CN(CCCCN)C(=O)CN(C(=O)CN(CCc1c[nH]c2ccccc12)C(=O)CN(CCCCN)C(=O)CN(CCc1c[nH]c2ccccc12)C(=O)CN(C(=O)CN(CCCCN)C(=O)CN(C(=O)CN(C(=O)CNCCCCN)[C@@H](C)c1ccccc1)[C@@H](C)c1ccccc1)[C@@H](C)c1ccccc1)[C@@H](C)c1ccccc1)[C@@H](C)c1ccccc1 [peptoid 15] | 3.1 µM (≈ 5.88 µg/mL) | – | – | 20.5 µM | 89.2 µM | 28.1 µM | 60.9 µM | –
12 | 54.6 % MeCN | 3.1 µM (≈ 5.76 µg/mL) | – | – | C[C@@H](c1ccccc1)N(CC(N)=O)C(=O)CN(C(=O)CN(CCCCN)C(=O)CN(C(=O)CN(C(=O)CN(CCCCN)C(=O)CN(CCc1c[nH]c2ccccc12)C(=O)CN(C(=O)CN(CCCCN)C(=O)CN(C(=O)CN(C(=O)CNCCCCN)[C@@H](C)c1ccccc1)[C@@H](C)c1ccccc1)[C@@H](C)c1ccccc1)[C@@H](C)c1ccccc1)[C@@H](C)c1ccccc1)[C@@H](C)c1ccccc1 [peptoid 9] | – | – | 106.4±0.6% | – | – | 10.6 µM | 31.9 µM | –
13 | – | – | 12.5 µM (≈ 22.2 µg/mL) | 45.7 %ACN | CC[C@H](C)[C@H](N)C(=O)N[C@@H](CC(C)C)C(=O)N[C@@H](CCCNC(=N)N)C(=O)N[C@@H](Cc1c[nH]c2ccccc12)C(=O)N1CCC[C@H]1C(=O)N[C@@H](Cc1c[nH]c2ccccc12)C(=O)N[C@@H](Cc1c[nH]c2ccccc12)C(=O)N1CCC[C@H]1C(=O)N[C@@H](Cc1c[nH]c2ccccc12)C(=O)N[C@@H](CCCNC(=N)N)C(=O)N[C@@H](CCCNC(=N)N)C(=O)N[C@@H](CCCCN)C(N)=O [Omiganan, reference compound] (H-ILRWPWWPWRRK-NH2) | – | – | 0% | – | – | > 100 µM | > 100 µM | 0%
